Assay results published in the supplement of paper PMC10307832.

Experiments:
Test in all cases: relative viability (nuclei count vs DMSO), 5 days (fraction); higher = more cells survive
[1] = compound: O=S(=O)(c1ccccc1)N(CC(F)(F)F)c1ccc(C(O)(C(F)(F)F)C(F)(F)F)cc1 + CC(=O)Nc1cccc(-n2c(=O)n(C3CC3)c(=O)c3c(Nc4ccc(I)cc4F)n(C)c(=O)c(C)c32)c1 [Trametinib] (partner 0.02 µM)
Summary of the method: (§1)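 Relative viability equals treated-well nuclei counts divided by vehicle-well nuclei counts. Counts came from 4× images of lung cancer cell lines grown in 1536-well plates for 5 days after pin-tool dosing on the day after seeding. Dosing used one drug alone or a fixed anchor-drug dose plus five library-drug doses (not always all listed) in √10 steps, and values are medians of duplicate plates.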

[2] = compound: O=S(=O)(c1ccccc1)N(CC(F)(F)F)c1ccc(C(O)(C(F)(F)F)C(F)(F)F)cc1 + CS(=O)(=O)N1CCN(Cc2cc3nc(-c4cccc5[nH]ncc45)nc(N4CCOCC4)c3s2)CC1 [Pictilisib] (partner 1 µM)
Summary of the method: as §1

[3] = compound: O=S(=O)(c1ccccc1)N(CC(F)(F)F)c1ccc(C(O)(C(F)(F)F)C(F)(F)F)cc1 + C[C@@H](Oc1cc(-c2cnn(C3CCNCC3)c2)cnc1N)c1c(Cl)ccc(F)c1Cl [Crizotinib] (partner 1 µM)
Summary of the method: as §1

[4] = compound: O=S(=O)(c1ccccc1)N(CC(F)(F)F)c1ccc(C(O)(C(F)(F)F)C(F)(F)F)cc1 + Nc1nc2[nH]cc(CCc3ccc(C(=O)N[C@@H](CCC(=O)O)C(=O)O)cc3)c2c(=O)[nH]1 [Pemetrexed] (partner 0.2 µM)
Summary of the method: as §1

[5] = compound: O=S(=O)(c1ccccc1)N(CC(F)(F)F)c1ccc(C(O)(C(F)(F)F)C(F)(F)F)cc1 + O=C(CCCCCCC(=O)Nc1ccccc1)NO [Vorinostat] (partner 1 µM)
Summary of the method: as §1

RO-3306 + Lapatinib = compound: C1=CC2=C(C=CC(=C2)C=C3C(=O)NC(=NCC4=CC=CS4)S3)N=C1 [RO-3306] + CS(=O)(=O)CCNCc1ccc(-c2ccc3ncnc(Nc4ccc(OCc5cccc(F)c5)c(Cl)c4)c3c2)o1 [Lapatinib] (partner 2 µM)
Summary of the method: as §1

| Cell Line | relative viability ([1]; first compound 0.8 µM) | relative viability ([1]; first compound 2.53 µM) | relative viability ([1]; first compound 8 µM) | relative viability ([2]; first compound 0.8 µM) | relative viability ([2]; first compound 2.53 µM) | relative viability ([2]; first compound 8 µM) | relative viability ([3]; first compound 0.8 µM) | relative viability ([3]; first compound 2.53 µM) | relative viability ([3]; first compound 8 µM) | relative viability ([4]; first compound 0.8 µM) | relative viability ([4]; first compound 2.53 µM) | relative viability ([4]; first compound 8 µM) | relative viability ([5]; first compound 0.8 µM) | relative viability ([5]; first compound 2.53 µM) | relative viability ([5]; first compound 8 µM) | relative viability (RO-3306 + Lapatinib; first compound 0.01 µM) | relative viability (RO-3306 + Lapatinib; first compound 0.03162 µM) | relative viability (RO-3306 + Lapatinib; first compound 0.1 µM) | relative viability (RO-3306 + Lapatinib; first compound 0.3162 µM) | relative viability (RO-3306 + Lapatinib; first compound 1 µM) |
| --- | --- | --- | --- | --- | --- | --- | --- | --- | --- | --- | --- | --- | --- | --- | --- | --- | --- | --- | --- | --- |
| ChaGo-K-1 | 0.998 | 0.862 | 0.884 | 0.647 | 0.693 | 1.24 | 1.31 | 1.07 | 0.613 | 0.263 | 0.264 | 0.272 | 0.885 | 0.732 | 0.655 | – | – | – | – | – |
| NCI-H2023 | 0.593 | 0.428 | 0.358 | 0.183 | 0.221 | 0.193 | 0.754 | 0.524 | 0.61 | 0.274 | 0.268 | 0.231 | 0.567 | 0.422 | 0.512 | 0.769 | 0.645 | 0.822 | 1.04 | 0.683 |
| NCI-H1299 | – | – | – | 0.875 | 0.78 | 0.663 | 0.958 | 0.942 | 0.906 | – | – | – | – | – | – | 1 | 1.03 | 0.977 | 0.977 | 0.986 |
| BEN | 1.05 | 0.888 | 1.02 | 0.585 | 0.533 | 0.616 | 0.952 | 0.89 | 0.766 | 0.702 | 0.742 | 0.972 | 0.581 | 0.543 | 0.566 | 0.726 | 0.759 | 0.754 | 0.8 | 0.744 |
| NCI-H661 | 0.677 | 0.574 | 0.533 | 0.389 | 0.398 | 0.427 | 0.99 | 0.965 | 0.933 | 0.908 | 0.934 | 0.924 | 0.828 | 0.783 | 0.821 | 0.412 | 0.469 | 0.532 | 0.536 | 0.605 |
| NCI-H2342 | 0.917 | 0.854 | 0.861 | – | – | – | – | – | – | 0.894 | 0.841 | 0.956 | 0.8 | 0.841 | 0.741 | – | – | – | – | – |
| SW 1573 | 0.638 | 0.537 | 0.472 | 0.504 | 0.38 | 0.45 | 0.709 | 0.75 | 0.636 | 0.904 | 0.76 | 0.877 | 0.634 | 0.722 | 0.725 | 1.11 | 1.01 | 1.17 | 1.12 | 0.947 |
| NCI-H1734 | 0.711 | 0.65 | 0.664 | 0.549 | 0.48 | 0.429 | 0.789 | 0.728 | 0.649 | 0.438 | 0.431 | 0.422 | 1.01 | 0.898 | 0.498 | 1.06 | 0.834 | 1.03 | 1.07 | 0.808 |
| IA-LM | – | – | – | 0.355 | 0.305 | 0.524 | 0.863 | 0.652 | 0.906 | – | – | – | 0.917 | 0.757 | 0.553 | 0.816 | – | 0.665 | 0.698 | 0.388 |
| ABC-1 | – | – | – | 0.7 | 0.602 | 0.755 | 1.19 | 1.07 | 1.01 | – | – | – | – | 0.882 | 0.912 | 1.25 | 1.28 | 1.17 | 1.16 | 1.05 |
| NCI-H1792 | 0.407 | 0.303 | 0.287 | 0.191 | 0.184 | 0.165 | 0.843 | 0.75 | 0.818 | 0.892 | 0.702 | 0.717 | – | – | – | 0.971 | – | 0.881 | 0.903 | 0.499 |
| EBC-1 | – | – | – | 0.286 | 0.266 | 0.284 | 0.234 | 0.29 | 0.293 | – | – | – | – | – | – | 0.206 | 0.264 | 0.211 | 0.193 | 0.218 |
| NCI-H1793 | 0.33 | 0.295 | 0.29 | 0.366 | 0.344 | 0.277 | – | – | – | 0.792 | 0.587 | 0.806 | 0.574 | 0.539 | 0.521 | 0.794 | 0.409 | 0.641 | 0.753 | 0.636 |
| Calu-6 | – | – | – | 0.839 | 0.851 | 0.691 | 0.7 | 0.668 | 0.649 | – | – | – | – | – | – | 1.27 | 1.12 | 0.981 | 1.18 | 1.06 |
| SW 900 | 0.787 | 0.828 | 0.607 | – | – | – | – | – | – | 0.581 | 0.478 | 0.538 | 0.498 | 0.498 | 0.699 | – | – | – | – | – |
| NCI-H1395 | 1.13 | 1 | 0.965 | 0.569 | 0.562 | 0.635 | – | – | – | 0.887 | 0.816 | 0.924 | 0.532 | 0.594 | 0.759 | 0.817 | 0.925 | 0.824 | 1.08 | 0.826 |
| LCLC-103H | 0.71 | 0.731 | 0.739 | 0.536 | 0.592 | 0.651 | 1.14 | 1.13 | 1.15 | 0.457 | 0.465 | 0.467 | 0.859 | 0.746 | 0.78 | – | – | – | – | – |
| A549 | – | – | – | 0.609 | 0.473 | 0.567 | 0.884 | 0.74 | 0.703 | – | – | – | – | – | – | 1.16 | 0.953 | 0.955 | 1.05 | 0.971 |
| NCI-H1648 | 0.628 | 0.369 | 0.44 | – | – | – | – | – | – | 0.718 | 0.574 | 0.535 | 0.41 | 0.387 | 0.312 | – | – | – | – | – |
| NCI-H441 | 0.387 | 0.348 | 0.423 | 0.523 | 0.401 | 0.495 | 0.992 | 0.869 | 0.717 | 0.25 | 0.262 | 0.285 | 0.464 | 0.85 | 0.781 | – | – | – | – | – |
| NCI-H1703 | – | – | – | 0.253 | 0.211 | 0.218 | 0.676 | 0.701 | 0.588 | – | – | – | – | – | – | 1.25 | 0.858 | 1.03 | 0.831 | 1.6 |
